Patent publication US20210205638A1, “PARATHYROID HORMONE AND REGENERATION OF DEGENERATIVE DISCS DISEASE” (THE JOHNS HOPKINS UNIVERSITY, priority 2017, published 2021)

Test system: β6 integrin
Test: qRT-PCR of integrin mRNA in NP tissue of aged mice
Format: in vivo, mouse
Conditions: NP cells of the aged mice
Experimental: After protein extraction, specimen from the same group of mice were prepared for RNA extraction using TRIzol reagent (Invitogen) according to the manufacturer's instruction. The purity of RNA was tested by measuring the absorbance at 260 and 280 nm. For qRT-PCR, two micrograms of RNA was reverse transcribed into cDNA using the SuperScript firststrand synthesis system (Invitrogen) and analyzed with SYBR Green-Master Mix (Qiagen) in the thermal cycler with two sets of primers specific for each target gene. Relative expression was calculated for each gene by the 2^−ΔΔCT method, with GAPDH for normalization.

## CC[C@H](C)[C@H](NC(=O)[C@H](CCC(=O)O)NC(=O)[C@H](CO)NC(=O)[C@@H](NC(=O)[C@@H](N)CO)C(C)C)C(=O)N[C@@H](CCC(N)=O)C(=O)N[C@@H](CC(C)C)C(=O)N[C@@H](CCSC)C(=O)N[C@@H](Cc1cnc[nH]1)C(=O)N[C@@H](CC(N)=O)C(=O)N[C@@H](CC(C)C)C(=O)NCC(=O)N[C@@H](CCCCN)C(=O)N[C@@H](Cc1cnc[nH]1)C(=O)N[C@@H](CC(C)C)C(=O)N[C@@H](CC(N)=O)C(=O)N[C@@H](CO)C(=O)N[C@@H](CCSC)C(=O)N[C@@H](CCC(=O)O)C(=O)N[C@@H](CCCN=C(N)N)C(=O)N[C@H](C(=O)N[C@@H](CCC(=O)O)C(=O)N[C@@H](Cc1c[nH]c2ccccc12)C(=O)N[C@@H](CC(C)C)C(=O)N[C@@H](CCCN=C(N)N)C(=O)N[C@@H](CCCCN)C(=O)N[C@@H](CCCCN)C(=O)N[C@@H](CC(C)C)C(=O)N[C@@H](CCC(N)=O)C(=O)N[C@@H](CC(=O)O)C(=O)N[C@H](C(=O)N[C@@H](Cc1cnc[nH]1)C(=O)N[C@@H](CC(N)=O)C(=O)N[C@@H](Cc1ccccc1)C(=O)O)C(C)C)C(C)C [PTH (1-34), teriparatide]
  mRNA expression of β6 integrin: specifically induced
